Drawing on PubChem BioAssay (NCI), this text covers TGI and GI50 for 17 molecules.

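Protocol summary: plate cells (96-well), add compound at 5 concentrations, incubate 48 h, interpolate endpoints linearly. The concentration for 50% growth inhibition is given as GI50. At the TGI there is no net growth.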

Among the test systems are SK-OV-3 ovarian; SN12C renal; 786-0 renal; SK-MEL-2 melanoma; NCI/ADR-RES ovarian; DU-145 prostate; MOLT-4 leukemia; HOP-92 NSCLC; M14 melanoma; MDA-MB-435.
Assay in all cases: NCI tumour cell line growth inhibition, 48 h

`Nc1ncnc2c1ncn2CCCC(c1ccccc1)P(=O)(O)O` (stereo unspecified): the TGI in the assay on SK-OV-3 ovarian, in the assay with SN12C renal, in the assay on 786-0 renal and in the assay with SK-MEL-2 melanoma was above 100 µM in each case.

For `CC(C)(C)c1ccc(O)c(C(c2ccc([N+](=O)[O-])cc2)c2cc(C(C)(C)C)ccc2O)c1`, the TGI in the assay with NCI/ADR-RES ovarian was 7.72 µM; in the assay on SK-OV-3 ovarian, 4.15 µM; in the assay on DU-145 prostate, 6.14 µM; in the assay with SN12C renal, 4.02 µM; in the assay with 786-0 renal it was 3.8 µM; with MOLT-4 leukemia, 5.14 µM. Further, the TGI in the assay with SK-MEL-2 melanoma was determined as 3.36 µM; in the assay with HOP-92 NSCLC it was 3.7 µM; with M14 melanoma, 3.16 µM.

On to `NC(=O)COc1c(Br)cc(Br)cc1Br`, for which the TGI in the assay with SK-OV-3 ovarian, in the assay on SN12C renal, in the assay with 786-0 renal, with MOLT-4 leukemia, in the assay with SK-MEL-2 melanoma and in the assay on M14 melanoma was above 100 µM throughout.

Turning to `O=C1CCCCC/C1=C\c1cccc([N+](=O)[O-])c1`, the TGI with NCI/ADR-RES ovarian was 95.5 µM; in the assay on SK-OV-3 ovarian, above 100 µM; in the assay with DU-145 prostate, above 100 µM; with SN12C renal, above 100 µM; in the assay with 786-0 renal it was above 100 µM; in the assay with MOLT-4 leukemia it was 83.5 µM. The TGI with SK-MEL-2 melanoma, in the assay on M14 melanoma and in the assay with MDA-MB-435 was above 100 µM in each case.

For the molecule `CCCc1n[nH]c(=O)n1N1C(=O)C=CC1=O`, the TGI in the assay with SK-OV-3 ovarian, in the assay with DU-145 prostate, in the assay on SN12C renal, with 786-0 renal, with MOLT-4 leukemia and in the assay with SK-MEL-2 melanoma was above 100 µM throughout. In addition, the TGI with M14 melanoma and in the assay with MDA-MB-435 was above 100 µM throughout.

Take `CC(=O)OC12CC(C(F)(F)F)(C(F)(F)F)OC1(OC(C)=O)CC(C(F)(F)F)(C(F)(F)F)O2` (stereo unspecified): the TGI in the assay with NCI/ADR-RES ovarian is above 100 µM; with SK-OV-3 ovarian it was 79.8 µM; with DU-145 prostate, 70.4 µM; in the assay on SN12C renal it was above 100 µM; with 786-0 renal, 12.4 µM; in the assay with MOLT-4 leukemia it was 67.6 µM. Moreover, the TGI with SK-MEL-2 melanoma, in the assay with M14 melanoma and in the assay on MDA-MB-435 was above 100 µM each time.

Regarding `C[N+](C)(C)CCOC(=O)/C=C/c1cnc[nH]1`, the TGI in the assay with NCI/ADR-RES ovarian was above 500 µM; with SK-OV-3 ovarian, above 500 µM; with SN12C renal, above 500 µM; in the assay on MOLT-4 leukemia it was above 316 µM; in the assay with SK-MEL-2 melanoma it was above 500 µM; in the assay with HOP-92 NSCLC, above 500 µM.

For the molecule `Nc1ncnc2c1sc(=S)n2-c1ccccc1`, the TGI with SK-OV-3 ovarian, in the assay with SN12C renal, in the assay with 786-0 renal, in the assay on MOLT-4 leukemia, with SK-MEL-2 melanoma and in the assay with HOP-92 NSCLC was above 100 µM in each case. Further, the TGI in the assay with M14 melanoma is above 100 µM.

With `COc1cccc2c1C(=O)c1c(O)c3c(c(O)c1C2=O)C[C@@](O)(C(=O)CN1CCOCC1)C[C@@H]3OC1CC(N)C(O)C(C)O1` (stereo partly specified), the TGI is above 100 µM in the assay on NCI/ADR-RES ovarian; above 100 µM in the assay with SK-OV-3 ovarian; above 100 µM in the assay with SN12C renal; 1.15 µM in the assay on MOLT-4 leukemia; 22.7 µM in the assay on SK-MEL-2 melanoma; 33.9 µM in the assay with HOP-92 NSCLC. For the same molecule, the GI50 with MOLT-4 leukemia is 0.234 µM; in the assay with HOP-92 NSCLC it was 5.27 µM.

In the case of `O=C(N/N=C\c1cccs1)c1ccncc1`, the TGI in the assay with NCI/ADR-RES ovarian, in the assay with SK-OV-3 ovarian, in the assay on SN12C renal, with 786-0 renal, in the assay with MOLT-4 leukemia and in the assay on SK-MEL-2 melanoma was above 100 µM each time. In addition, the TGI in the assay with HOP-92 NSCLC, in the assay with M14 melanoma and with MDA-MB-435 was above 100 µM throughout.

In the case of `N/C(=N\S(=O)(=O)c1ccc(-c2ccccn2)s1)Nc1ccc(Cl)cc1`, the TGI in the assay with NCI/ADR-RES ovarian was 43.5 µM; with SK-OV-3 ovarian, 47.9 µM; in the assay with DU-145 prostate, 34.3 µM; in the assay with SN12C renal, 30.3 µM; in the assay with 786-0 renal, 29.4 µM; with MOLT-4 leukemia, 5.61 µM. The TGI in the assay with SK-MEL-2 melanoma amounted to 27.4 µM; in the assay with HOP-92 NSCLC, 28.9 µM; with M14 melanoma, 33.6 µM.

With `COc1cc(N)c2[nH]c3c(C)ccc(C)c3c2c1`, the TGI in the assay with SN12C renal, in the assay on 786-0 renal, in the assay on MOLT-4 leukemia, in the assay on SK-MEL-2 melanoma and in the assay with M14 melanoma was above 100 µM in each case.

With `Cc1ccc2n(c1)cc(-c1ccc(/C=N/NC(=N)N/N=C/c3ccc(-c4cn5cc(C)ccc5[n+]4C)cc3)cc1)[n+]2C`, the TGI in the assay on NCI/ADR-RES ovarian, in the assay with SK-OV-3 ovarian, in the assay on SN12C renal, with 786-0 renal, with MOLT-4 leukemia and in the assay on M14 melanoma was above 100 µM throughout. Further, the TGI with MDA-MB-435 was above 100 µM.

Turning to `COc1ccc(C2S/C(=C\c3cccc(OC)c3)C(=O)N2NC(=O)Cc2ccccc2)cc1` (stereo unspecified), the TGI with SK-OV-3 ovarian, in the assay on SN12C renal, with 786-0 renal, in the assay with MOLT-4 leukemia, in the assay with SK-MEL-2 melanoma and in the assay with HOP-92 NSCLC was above 100 µM in each case. The molecule further registered a TGI in the assay with M14 melanoma above 100 µM.

For the molecule `Fc1ccc2[nH]cc(-c3nc(-c4c[nH]c5ccncc45)cs3)c2c1`, the GI50 is 1.65 µM with SK-OV-3 ovarian, 1.69 µM in the assay with DU-145 prostate, 1.52 µM in the assay with SN12C renal and 1.91 µM in the assay with SK-MEL-2 melanoma. Also, the TGI is 3.22 µM with SK-OV-3 ovarian, 3.1 µM with DU-145 prostate, 2.92 µM with SN12C renal and 3.75 µM in the assay on SK-MEL-2 melanoma.

As for `CSc1c2c(C)n[nH]c2nn1-c1ccccc1`, the TGI with NCI/ADR-RES ovarian, in the assay with SK-OV-3 ovarian, in the assay with DU-145 prostate, with SN12C renal, in the assay on 786-0 renal and in the assay on MOLT-4 leukemia was above 100 µM in each case. The TGI in the assay with SK-MEL-2 melanoma, with M14 melanoma and with MDA-MB-435 was above 100 µM in each case.

In the case of `Cc1c(OCCCOc2ccc3c(=O)cc(-c4ccccc4)oc3c2C)ccc2c(=O)cc(-c3ccccc3)oc12`, the TGI with SK-OV-3 ovarian, in the assay on 786-0 renal, in the assay with MOLT-4 leukemia, in the assay on SK-MEL-2 melanoma, with HOP-92 NSCLC and in the assay with M14 melanoma was above 100 µM each time.
